According to patent US4558068A, “Spirobenzofuranones and their use in treating peptic ulcers” (Takeda Chemical Industries, Ltd., priority 1983, dated 1985):

Columns and labels:
[1] = test system: stress ulcer; experiment: Stress ulcer inhibiting effect, water immersion method (Takagi and Okabe); type: in vivo; settings: rats, 50 mg/kg, i.p.; **: P < 0.05
Text: The stress ulcer inhibiting effect of the drug was investigated in rats in accordance with the water immersion method described by K. Takagi and S. Okabe, Jap. J. Pharmacol. 18, 9, 1968.

[2] = test system: ICR mice; experiment: Acute oral toxicity, single administration, 7 days observation; type: in vivo; settings: 500 mg/kg orally once

O=C(O)C(O)c1ccc2c(c1)C(=O)C1(CC1)O2 (centres unmarked)
% Inhibition (stress ulcer) [1]: 56% | death during observation period [2]: no death was found
